Structures can show the parent of a compound that is named as a salt. Residues, ends and D or L forms follow the SMILES beside them.
Columns and labels:
Format in all cases: in vivo
growth hormone = assay: Suppression of Growth Hormone, Glucagon and Insulin (arginine-stimulated, nembutal-anesthetized rats): growth hormone; conditions: for GH: albino male rats, arginine stimulation, blood 15 min after compound
Method: (§1) Albino male rats are arranged in the three groups (nine rats/group) and injected i.p. with nembutal at 50 mg/kg. Fifteen minutes after the nembutal injection they are injected s.c. according to group with (a) test compound, typically 10-2000 μg/kg.; )b) SRIF 200 μg/kg.; or (c) physiological saline. Ten minutes. later 0.5 ml. of arginine (300 mg/ml. pH 7.2) is injected into the heart. The rats are decapitated five minutes after receiving the arginine, and the blood is collected into Trasylol-EDTA. Appropriate aliquots are then assayed for growth hormone, glucagon and insulin. […] Comparisons between control and experimental values are statistically evaluated by the analysis of variants method and statistical significance (p) at 0.05 or lower is used as the index of activity.

growth hormone (GH) = assay: Suppression of Growth Hormone (duration of activity, 2 and 4 hours after sc injection); conditions: 1 mg/kg sc, nonfasted male rats, paired saline control; for plasma growth hormone (GH) concentration, 2 Hr.: 2 hours after injection; for plasma growth hormone (GH) concentration, 4 Hr.: 4 hours after injection
Method: A subcutaneous (sc) injection of peptide solubilized or suspended in physiological saline, is given to Charles River (CD® nonfasted male rats. Matched saline control solution sc injected rats serve as control animals so that every experimental rat is paired with a control rat. The rats are kept in separate cages and 20 minutes before the end of the test time period they are given an intraperitoneal (i.p.) injection of Nembutal® at a dose of 50 mg/kg. Blood samples are obtained by cardiac puncture and the plasma separated for the radioimmunoassay of growth hormone (GH) concentration (ng/ml.). Time periods after injection of 2 and 4 hours are used to test the duration of the activity of the peptide to suppress circulating peripheral GH levels. Comparisons between control and experimental GH values at each time are evaluated by the Student "t" test and statistical significance (p) at the 0.05 level or lower is used as the index of activity.

insulin = assay: Suppression of Growth Hormone, Glucagon and Insulin (arginine-stimulated, nembutal-anesthetized rats): insulin; conditions: albino male rats, arginine stimulation, blood 15 min after compound
Method: as §1

glucagon = assay: Suppression of Growth Hormone, Glucagon and Insulin (arginine-stimulated, nembutal-anesthetized rats): glucagon; conditions: albino male rats, arginine stimulation, blood 15 min after compound
Method: as §1

Compound: C[C@@H](O)[C@@H]1NC(=O)[C@H](Cc2ccccc2)NC(=O)[C@H]([C@@H](C)O)NC(=O)[C@H](CCCCN)NC(=O)[C@@H](Cc2c[nH]c3ccccc23)NC(=O)[C@H](Cc2ccccc2)NC(=O)[C@H](Cc2ccccc2)NC(=O)[C@H](Cc2c[nH]cn2)NC(=O)[C@H](Cc2c[nH]cn2)NC(=O)[C@@H](N)CSSC[C@@H](C(=O)O)NC(=O)[C@H](CO)NC1=O [Compound I, L-Cysteinyl-L-Histidyl-L-Histidyl-L-Phenylalanyl-L-Phenylalanyl-D-Trptophyl-L-Lysyl-L-Threonyl-L-Phenylalanyl-L-Threonyl-L-Seryl-L-Cysteine Cyclic (1-12) Disulfide] (HELM PEPTIDE1{C.H.H.F.F.[dW].K.T.F.T.S.C}$PEPTIDE1,PEPTIDE1,1:R3-12:R3$$$V2.0)
- GH (growth hormone; 100 μg/kg s.c.): 20 ± 8 ng/mL
- plasma growth hormone (GH) concentration, 2 Hr. (growth hormone (GH)): 32 ± 6 ng/mL
- plasma growth hormone (GH) concentration, 4 Hr. (growth hormone (GH)): 62 ± 13 ng/mL
- Insulin (insulin; 100 μg/kg s.c.): 202 ± 49 μU/ml.
- Glucagon (glucagon; 100 μg/kg s.c.): 20 ± 8 pg/mL

Compound: C[C@@H](O)[C@@H]1NC(=O)[C@H](CCCCN)NC(=O)[C@@H](Cc2c[nH]c3ccccc23)NC(=O)[C@H](Cc2ccccc2)NC(=O)[C@H](Cc2ccccc2)NC(=O)[C@H](Cc2c[nH]cn2)NC(=O)[C@H](Cc2c[nH]cn2)NC(=O)[C@@H](N)CSSC[C@H](C(=O)O)NC(=O)[C@H](CO)NC(=O)[C@H]([C@@H](C)O)NC(=O)[C@H](Cc2ccccc2)NC1=O [Compound II, L-Cysteinyl-L-Histidyl-L-Histidyl-L-Phenylalanyl-L-Phenylalanyl-D-Tryptophyl-L-Lysyl-L-Threonyl-L-Phenylalanyl-L-Threonyl-L-Seryl-D-Cysteine Cyclic (1-12) Disulfide, Diacetate Salt] (HELM PEPTIDE1{C.H.H.F.F.[dW].K.T.F.T.S.[dC]}$PEPTIDE1,PEPTIDE1,1:R3-12:R3$$$V2.0)
- GH (growth hormone; 10 μg/kg s.c.): 110 ± 22 ng/mL
- GH (growth hormone; 100 μg/kg s.c.): 64 ± 20 ng/mL
- hormone specificity of suppression (growth hormone; at low doses, growth hormone, glucagon and insulin): specific for the suppression of glucagon and growth hormone without affecting insulin secretion
- plasma growth hormone (GH) concentration, 2 Hr. (growth hormone (GH)): 20 ± 3 ng/mL
- plasma growth hormone (GH) concentration, 4 Hr. (growth hormone (GH)): 107 ± 34 ng/mL
- Insulin (insulin; 10 μg/kg s.c.): 318 ± 54 μU/ml.
- Insulin (insulin; 100 μg/kg s.c.): 165 ± 21 μU/ml.
- Glucagon (glucagon; 10 μg/kg s.c.): 70 ± 7 pg/mL
- Glucagon (glucagon; 100 μg/kg s.c.): 5 ± 2 pg/mL
